From patent US20210238169A1, “PROCESS FOR PREPARING A COMPOUND OF FORMULA (XIII)” (PULMOCIDE LIMITED, priority 2014, published 2021)

Key:
[1] = test system: Aspergillus fumigatus (NCPF2010); experiment: Aspergillus fumigatus invasion in human alveoli bilayers (transwells), GM in lower chamber; assay type: cell-based; conditions: for DFB50 (days taken to reach a fungal burden of 50% of control) / GM Levels in the Lower Chamber, % inhibition vs. control / GM Levels in the Lower Chamber, OD value: Compound (I) 0.1 μg/mL upper chamber, Posaconazole 0.01 μg/mL lower chamber
Method: In vitro models of human alveoli, consisting of a bilayer of human alveolar epithelial cells and endothelial cells, were prepared as previously described (Hope et al., 2007). […] Primary human pulmonary artery endothelial cells (HPAEC) were harvested and diluted to 10^6 cells/mL in EGM-2 media (Lonza, Basel, Switzerland). Transwells were inverted and the cell suspension (100 μL/well) was applied to the base of each transwell. The inverted transwells were incubated at RT within a flow hood for 2 hr after which they were turned upright. EGM-2 media was added to the lower (700 μL/well) and upper (100 μL/well) compartments and the transwells were incubated for 48 hr (37° C., 5% CO2). The EGM-2 media in the lower compartment was then replaced with fresh EGM-2 media. A549 cells were harvested and diluted to 5×10^5 cells/mL in 10% EBM, then added to the upper compartment (100 μL/well) of all transwells and the plates incubated for 72 hr (37° C., 5% CO2). Conidia of Aspergillus fumigatus (the itraconazole sensitive strain NCPF2010 and the itraconazole resistant strain TR34-L98H) were cultured separately in Sabouraud dextrose agar for 3 days. A stock conidia suspension of either strain was prepared from a Sabouraud dextrose agar culture by washing with PBS-tween (10 mL; PBS containing 0.05% Tween-20, 100 U/mL Penicillin and 100 U/mL Streptomycin). The conidia count was assessed using a Neubauer haemocytometer and adjusted to 10^6 conidia/mL with PBS. A working stock of conidia was prepared in EBM (conc of 10^5 conidia/mL) immediately prior to use.
The media in the upper compartment was aspirated and that containing the appropriate test and reference compounds, or vehicle, were added (100 μL/well). Transwells were then transferred into the 24-well plate containing the test and reference compounds or DMSO vehicle. After incubation for 1 hr (35° C., 5% CO2) the conidia suspension (10 μL/well) was added to the upper compartment of each transwell. Plates were then incubated for 24 hr (35° C., 5% CO2). Supernatants from each compartment (5 μL/compartment) were collected and stored (−20° C.). Media was replaced daily after collection of the supernatants and all wells were treated with test and reference compounds or with DMSO, as described above, for 3 days. Samples continued to be collected until fungal growth was visible by eye in all transwells. The levels of GM in the supernatant in lower compartment were then measured by ELISA (BioRad, CA, USA) as an index of Aspergillus fumigatus invasion.

[2] = test system: Aspergillus fumigatus (ATCC 13073); experiment: Body weight loss of Aspergillus fumigatus infected, immunocompromised, neutropenic mice; assay type: in vivo; conditions: 0.4 mg/mL intra-nasally, prophylactic; for Body weight loss caused by infection with A. fumigatus: % weight loss compared with day 0
Method: Aspergillus fumigatus (ATCC 13073 [strain: NIH 5233], American Type Culture Collection, Manassas, Va., USA) was grown on Malt agar (Nissui Pharmaceutical, Tokyo, Japan) plates for 6-7 days at RT (24±1° C.). Spores were aseptically dislodged from the agar plates and suspended in sterile distilled water with 0.05% Tween 80 and 0.1% agar. On the day of infection, spore counts were assessed by haemocytometer and the inoculum was adjusted to obtain a concentration of 1.67×10^8 spores mL^−1 of physiological saline.
On day 0, animals were infected with the spore suspension (35 μL intra-nasally).
Test compounds were administered intra-nasally (35 μL of a suspension of 0.08-2.00 mg/mL in physiological saline) once daily, 30 min before infection on day 0 and then on days 1, 2 and 3 (representing prophylactic treatment) or on days 1, 2 and 3 only (representing therapeutic treatment). For extended prophylactic treatment, test compounds (35 μL of a suspension of 0.0032 or 0.016 mg/mL in physiological saline) were administered intra-nasally once daily for seven days; then 30 min before infection on day 0, and thereafter, either on days 1, 2 and 3 after infection, or on day 0 only. The effects of these treatment paradigms were compared with those obtained when treatment was restricted to one day and 30 min before inoculation and then on days 1, 2 and 3 post infection; or reduced still further to one day and 30 min before infection only.

SMILES | DFB50 (days taken to reach a fungal burden of 50% of control) [1] | GM Levels in the Lower Chamber, % inhibition vs. control ([1]; Treatment Day 1) | GM Levels in the Lower Chamber, OD value ([1]; Treatment Day 1) | GM Levels in the Lower Chamber, % inhibition vs. control ([1]; Treatment Day 2) | GM Levels in the Lower Chamber, OD value ([1]; Treatment Day 2) | GM Levels in the Lower Chamber, % inhibition vs. control ([1]; Treatment Day 3) | GM Levels in the Lower Chamber, OD value ([1]; Treatment Day 3) | GM Levels in the Lower Chamber, % inhibition vs. control ([1]; Treatment Day 4) | GM Levels in the Lower Chamber, OD value ([1]; Treatment Day 4) | GM Levels in the Lower Chamber, % inhibition vs. control ([1]; Treatment Day 5) | GM Levels in the Lower Chamber, % inhibition vs. control ([1]; Treatment Day 7) | GM Levels in the Lower Chamber, OD value ([1]; Treatment Day 7) | GM Levels in the Lower Chamber, % inhibition vs. control ([1]; Treatment Day 8) | GM Levels in the Lower Chamber, OD value ([1]; Treatment Day 8) | % Inhibition of weight loss ([2]; Day 1) | Body weight loss caused by infection with A. fumigatus ([2]; Day 1) | % Inhibition of weight loss ([2]; Day 2) | Body weight loss caused by infection with A. fumigatus ([2]; Day 2) | % Inhibition of weight loss ([2]; Day 3) | Body weight loss caused by infection with A. fumigatus ([2]; Day 3) | further results
Cc1cc(N2CCN(c3ccc(C(=O)Nc4ccc(F)cc4)cc3)CC2)ccc1OC[C@@H]1CO[C@@](Cn2cncn2)(c2ccc(F)cc2F)C1 [Compound (I), 4-(4-(4-(((3R,5R)-5-((1H-1,2,4-triazol-1-yl)methyl)-5-(2,4-difluorophenyl)tetrahydrofuran-3-yl)methoxy)-3-methylphenyl)piperazin-1-yl)-N-(4-fluorophenyl)benzamide] | 1.13 days | 86% | 0.091 OD | 3.4% | 1.15 OD | 3.7% | 1.14 OD | 4.5% | 1.13 OD | 0.3% | 0.9% | 1.16 OD | 2.8% | 1.13 OD | 34% | 6.1 ± 1.8% | 39% | 8.7 ± 2.5% | 42% | 11.1 ± 5.6% | effect of combination therapy on invasion in alveoli bilayers ([1]; Compound (I) combined with intraconazole, voriconazole or caspofungin (results not shown)): synergistic or additive effect
CC[C@@H]([C@H](C)O)n1ncn(-c2ccc(N3CCN(c4ccc(OC[C@@H]5CO[C@@](Cn6cncn6)(c6ccc(F)cc6F)C5)cc4)CC3)cc2)c1=O [Posaconazole] | 1.45 days | 91% | 0.064 OD | 15% | 1.01 OD | 4.1% | 1.14 OD | 1.1% | 1.17 OD | −0.6% | 0.3% | 1.17 OD | 0.8% | 1.15 OD | 21% | 7.3 ± 2.0% | 6% | 13.4 ± 1.9% | 6% | 18.1 ± 2.0% | GM Levels in the Lower Chamber, OD value ([1]; Treatment Day 0): 0 OD; GM Levels in the Lower Chamber, OD value ([1]; Treatment Day 5): 1.18 OD; GM Levels in the Lower Chamber, % inhibition vs. control ([1]; Treatment Day 6): −1.1%; GM Levels in the Lower Chamber, OD value ([1]; Treatment Day 6): 1.19 OD
